Results from patent US4465673A, “Pentagalloylglucose antiviral composition” (Tanaka; Yasuo, priority 1983, dated 1984).

How the values were obtained:
Acute toxicity in rats = format: in vivo; details: in a usual manner
Procedure: Acute toxicity of 1,2,3,4 6-pentagalloylglucose was assayed using rats in a usual manner.

herpes simplex virus = test: Antiviral activity against herpes simplex virus in FL cells (multinucleated giant cell formation); format: cell-based; details: FL cell monolayers, sample added 1 h after virus, 36° C., 5% carbon dioxide, 24 hours incubation
Procedure: Antiviral activity of 1,2,3,4,6-pentagalloylglucose against herpes simplex virus was assayed. Procedure:
Monolayers were prepared from dispersed FL cells in Petri dishes of diameter 35 mm, 24 hours prior to the assay. On carrying out the assay, the medium in each dish was poured off and each dish received 1 ml of medium containing herpes simplex virus. The dishes were incubated at 36° C. in a humidified atmosphere containing 5% of gaseous carbon dioxide. After an hour, each dish further received 1 ml of medium and 20-200 μl of an aqueous 1,2,3,4,6-pentagalloylglucose solution. Incubation was continued for 24 hours and then all the dishes were inspected for multinucleated giant cell. Antiviral activity was defined as the minimum concentration of sample at which no multinucleated giant cell appeared.

Compound	Acute toxicity (Acute toxicity in rats)	minimal effective concentration (herpes simplex virus; read-out: Antiviral activity (minimum concentration of sample at which no multinucleated giant cell appeared))	Antiviral activity (minimum concentration of sample at which no multinucleated giant cell appeared) (herpes simplex virus)
O=C(OCC1OC(OC(=O)c2cc(O)c(O)c(O)c2)C(OC(=O)c2cc(O)c(O)c(O)c2)C(OC(=O)c2cc(O)c(O)c(O)c2)C1OC(=O)c1cc(O)c(O)c(O)c1)c1cc(O)c(O)c(O)c1 (stereo not drawn) [1,2,3,4,6-pentagalloylglucose]	extremely low	25 µg/mL	–
1,2,3,4,6-pentagalloylglucose [Product of Example 1]	–	–	26 µg/mL
